Reference: patent US10023565B2, “N,N′ substituted piperidinamine compounds, and preparation method and usage thereof” (Institute of Pharmacology and Toxicology Academy of …, priority 2013, dated 2018)
pKd: −log10 of the molar value.

Legend:
[1] = tested on: mice; test: Acute toxicity experiment with single intragastric administration to mice; format: in vivo; settings: for Quantity of animals (survival/death): 14 d observation
Experimental: Acute toxicity experiment with single intragastric administration to mice of the compound of Example 36 according to the following method
(2) Preparation of test sample: a suitable amount of sample was weighed, and suspended in 0.5% CMC-Na, followed by vortex vibration till uniform. The resulting suspension was fully vibrated before administration.
According to the results of pre-experiment, experiment was conducted using Fixed-dose procedure. 70 mice were randomly divided into 7 groups, 10 mice each group, male and female in half. The administration doses were respectively: 1555, 1296, 1080, 900, 750, 625 and 520 mg/kg, and observation of the animals after administration continued for 14 days.
Observation was conducted once 5 min, 10 min, 20 min, 30 min, 1 h, 2 h, 4 h, 6 h, 8 h, 12 h, 18 h, 1 d, 2 d, 3 d, 7 d and 14 d respectively after administration, to record the animal death and toxic response.
LD50 was calculated by statistical analysis using SAS software.
2. Calculation of LD50 Using Bliss Method

[2] = biological target: T1, Hsp70 (Homo sapiens, UniProt P0DMV8); test: Measurement of affinity between compounds and Hsp70 (SPR, BIACORE T100); format: binding
T1 construct: purchased Enzo Life Sciences ADI-ESP-550-D
T1 sequence (P0DMV8 whole entry): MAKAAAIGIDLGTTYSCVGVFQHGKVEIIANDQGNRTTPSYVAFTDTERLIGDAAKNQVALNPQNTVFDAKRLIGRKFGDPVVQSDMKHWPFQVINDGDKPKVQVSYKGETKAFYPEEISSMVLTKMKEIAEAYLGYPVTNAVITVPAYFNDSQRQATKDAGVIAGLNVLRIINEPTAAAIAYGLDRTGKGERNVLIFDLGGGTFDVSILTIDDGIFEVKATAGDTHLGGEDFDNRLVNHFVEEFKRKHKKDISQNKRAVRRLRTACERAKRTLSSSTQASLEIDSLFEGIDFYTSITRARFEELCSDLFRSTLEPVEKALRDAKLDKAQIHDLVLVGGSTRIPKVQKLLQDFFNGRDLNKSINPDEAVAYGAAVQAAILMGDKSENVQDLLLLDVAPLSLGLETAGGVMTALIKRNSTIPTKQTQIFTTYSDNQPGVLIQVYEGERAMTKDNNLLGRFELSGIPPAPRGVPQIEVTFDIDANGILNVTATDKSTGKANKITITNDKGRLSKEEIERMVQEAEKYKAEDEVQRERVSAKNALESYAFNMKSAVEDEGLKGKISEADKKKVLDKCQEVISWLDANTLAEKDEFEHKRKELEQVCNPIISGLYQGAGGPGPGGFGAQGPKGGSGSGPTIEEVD
Experimental: Instrument for measuring the affinity between Example compounds and Hsp70 is BIACORE T100 Biomolecular Interaction Analysis (GE, USA), and the positive control drug is VER-155008 that is well-recognized as Hsp70 inhibitor now, and, on the basis of the measured results, according to binding characteristics between the compounds and protein, the binding constant (equilibrium dissociation constant KD) between drugs and protein is calculated by selecting steady state model with the formula: Conc*Rmax/[conc+KD]+offset.
1. Instrument: BIACORE T100 Biomolecular Interaction Analysis (GE, USA)
2. Reagents: PBS Buffer (×10), P20, CM5 chip (GE, USA), Hsp70 (human, ADI-ESP-550-D), manufactured by Enzo Life Sciences.
30 mM mother liquor of the compound was formulated with DMSO, which was diluted to 2 mM application solution with DMSO before use. 5 μl of the application solution was taken and diluted with 95 μl 1.05×PBS to 100 μM, and then diluted in turn with PBS containing 5% DMSO to […]. PBS containing 5% DMSO was used as solvent control.
Hsp70 protein was diluted with 10 mmol/L sodium acetate buffer solution (pH 5.0) to 30 μg/ml, and coupled directly on a hydrophilic carboxylmethyl dextran matrix sensor chip M5 through normalized primary amine coupling reaction, RU=11209, and then the chip was balanced for 1-2 h with PBS Buffer at […].
At a flow rate of […], with PBS containing 5% DMSO as mobile phase, at 25° C., the compound was introduced in the sequence of 0.003, 0.01, 0.03, 0.1, 0.3, 1, 3 and 10 μM, with binding time of 90 seconds, and dissociation time of 120 seconds.
According to binding characteristics between the compounds and protein, the binding constant (equilibrium dissociation constant KD) between drugs and protein was calculated by selecting steady state model with the formula: Conc*Rmax/[conc+KD]+offset.

CSc1nccc(N2CCC(N(C)Cc3ccc(C#N)cc3)CC2)n1 [Example 36, N-methyl-N-(4-cyanobenzyl)-N-[1-(2-methylthiopyrimidin-4-yl)piperidin-4-yl]amine]
Quantity of animals (survival/death) ([1]; 520 mg/kg, Female): 5/0 | Quantity of animals (survival/death) ([1]; 520 mg/kg, Male): 5/0 | Quantity of animals (survival/death) ([1]; 625 mg/kg, Female): 5/0 | Quantity of animals (survival/death) ([1]; 625 mg/kg, Male): 4/1 | Quantity of animals (survival/death) ([1]; 750 mg/kg, Female): 2/3 | Quantity of animals (survival/death) ([1]; 750 mg/kg, Male): 4/1 | Quantity of animals (survival/death) ([1]; 900 mg/kg, Female): 2/3 | Quantity of animals (survival/death) ([1]; 900 mg/kg, Male): 3/2 | Quantity of animals (survival/death) ([1]; 1080 mg/kg, Female): 2/3 | Quantity of animals (survival/death) ([1]; 1080 mg/kg, Male): 0/5 | Quantity of animals (survival/death) ([1]; 1296 mg/kg, Female): 0/5 | Quantity of animals (survival/death) ([1]; 1296 mg/kg, Male): 1/4 | first animal death, time after administration ([1]; 1555 mg/kg dose group): 5 min | Quantity of animals (survival/death) ([1]; 1555 mg/kg, Female): 0/5 | Quantity of animals (survival/death) ([1]; 1555 mg/kg, Male): 0/5 | gross anatomical examination ([1]; animals dead during or killed at end of the experiment): No obvious abnormality was found | survival of the dose group ([1]; mouse, in vivo): all survived | clinical manifestations of animal poisoning ([1]; single intragastric administration, 520-1555 mg/kg): muscle tremors, convulsions, eye closed, curled up into a ball, erected hair, reduced activity, loss of appetite | LD50 and 95% confidence limit ([1]; single intragastric administration, mice, Bliss method, SAS): 869.0 (776.5-969.4) mg/kg | KD compared with positive control drug VER-155008 [2]: KD values equivalent to that of the positive control drug VER-155008 | pKd ([2]; steady state model, 25° C., read-out: KD (binding constant between the compounds and Hsp70)): 6.61
